Each structure is given as a SMILES string. Structures can show the parent of a compound that is named as a salt.

One assay addresses T1, PLK1 kinase domain (Homo sapiens, UniProt P53350).
T1 construct: made in house; host or cells: baculovirus-infected T. ni insect cells
The experiment in a line: Assay for inhibition of PLK1 (SPA, 33P-ATP, His-tagged PLK kinase domain). Format: biochemical. Conditions: 2 μM ATP, read-out: Ave pIC50 PLK Enzyme Inhibition (converted). As to the method:
I. Assay for Inhibition of PLK1
A. Preparation of 6× N-terminal His-tagged PLK Kinase Domain
6× N-terminal His-tagged PLK kinase domain (amino acids 21-346 preceded by […]) was prepared from baculovirus infected T. ni cells under polyhedrin promoter control. All procedures were performed at 4° C. Cells were lysed in 25 mM HEPES, 200 mM NaCl, 25 mM imidazole; pH 8.0. The homogenate was centrifuged at 14K rpm in a SLA-1500 rotor for 40 min and the supernatant filtered through a 1.2 micron filter. The supernatant was loaded onto a Nickel chelating Sepharose (Amersham Pharmacia) column and washed with 25 mM HEPES, 500 mM NaCl, 25 mM imidazole; pH 8.0. The column was then washed with a 16.6% B step where buffer B is 25 mM HEPES, 500 mM NaCl, 300 mM imidazole; pH 8.0. Protein was eluted using a 10-column volume linear gradient from 16.6% B to 100% B. Fractions containing PLK were determined by SDS-PAGE. PLK was concentrated using a 10 kDa molecular weight cutoff membrane and then loaded onto a Superdex 75 gel filtration (Amersham Pharmacia) column equilibrated in 25 mM HEPES, 1 mM DTT, 500 mM NaCl; pH 8.0. Fractions containing PLK were determined by SDS-PAGE. PLK was pooled, aliquoted and stored at −80° C. Samples were quality controlled using mass spectrometry.
B. Enzyme Activity+/−Inhibitors was Determined as Follows:
Compounds were added to the plate (1 μl in 100% DMSO). DMSO (2% final) and EDTA (55.5 mM final) were used as controls. Reaction Mix A is prepared as follows at 4° C.:
Reaction Mix A (substrate Mix): • 25 mM HEPES, pH 7.2 • 15 mM MgCl2 • 2 μM ATP • 0.1 μCi/well ^33P-γ ATP (10 Ci/mMol) • 2 μM substrate peptide (Biotin-Ahx-[…]) Reaction Mix B is prepared as follows at 4° C.:
Reaction Mix B (Enzyme Mix) • 25 mM HEPES, pH 7.2 • 15 mM MgCl2 • 0.15 mg/ml BSA • 2 mM DTT • 2-10 nM PLK1 kinase domain
Reaction Mix A (20 μl) is added per well. Reaction Mix B (20 μl) is added per well. Incubate 1.5 hrs. at RT. The enzymatic reaction is stopped with 175 μl of SPA/EDTA bead mix (29 mM EDTA, 2.5 mg/ml Streptavidin-coated SPA in Standard Dulbecco's PBS (without Mg^2+ and Ca^2+), 60 μM ATP). Plates are sealed spun (after a 1 hr incubation at RT) at 1,000×g for 7 min or settled overnight, then plates counted in Packard TopCount for 30 seconds/well.

The test system of assay [1] is Normal Human foreskin fibroblasts (HFF). The experiment in a line: Methylene Blue Growth Inhibition Assay, HFF. Format: cell-based. Conditions: 72 h, HFF cells, 3 days, read-out: MeB Cell Line IC50. Here is the method:
(§1) II. Methylene Blue Growth Inhibition Assay
(§2) Normal Human foreskin fibroblasts (HFF) and human colon (HCT116, RKO), lung (H460), prostate (PC3), and breast tumor (MCF7) cell lines were cultured in high glucose DMEM (Life Technologies) containing 10% fetal bovine serum (FBS) at 37° C. in a humidified 10% CO2, 90% air incubator. Cells were harvested using trypsin/EDTA, counted using a haemocytometer, and plated in 100 μl of the appropriate media, at the following densities, in a 96-well tissue culture plate (Falcon 3075): HFF 5,000 cells/well, HCT116 3,000 cells/well, RKO 2,500 cells/well, H460 2,000 cells/well, PC3 8,000 cells/well, MCF7 4,000 cells/well. The next day, compounds were diluted in DMEM containing 100 μg/ml gentamicin, at twice the final required concentration, from 10 mM stock solutions in DMSO. 100 μl/well of these dilutions were added to the 100 μl of media currently on the cell plates. Medium containing 0.6% DMSO was added to control wells. Compounds diluted in DMEM were added to all cell lines. The final concentration of DMSO in all wells was 0.3%. Cells were incubated at 37° C., 10% CO2 for 3 days. Medium was removed by aspiration. Cell biomass was estimated by staining cells with 90 μl per well methylene blue (Sigma M9140, 0.5% In 50:50 ethanol:water), and incubation at room temperature for at least 30 minutes. Stain was removed, and the plates rinsed under a gentle stream of water, and air-dried. To release stain from the cells 100 μl of solubilization solution was added (1% N-lauroyl sarcosine, Sodium salt, Sigma L5125, in PBS), and plates were shaken gently for about 30 minutes. Optical density at 620 nm was measured on a microplate reader. Percent inhibition of cell growth was calculated relative to vehicle treated control wells. Concentration of compound that inhibits 50% of cell growth (IC50) was interpolated using nonlinear regression (Levenberg-Marquardt) and the equation, y=Vmax*(1−(x/(K+x)))+Y2, where “K” was equal to the IC50. In Table 1, +=10->30 uM; ++=1-10 uM: +++=<1 uM.

The subject of assay [2] is PC3 prostate tumor cell line. The experiment in a line: Methylene Blue Growth Inhibition Assay, PC3. Conditions: Homo sapiens, PC-3, 72 h; PC3 cells, 3 days; read-out: MeB Cell Line IC50. The format is cell-based. As to the method:
as §1, §2

Assay [3] concerns RKO colon tumor cell line. The experiment in a line: Methylene Blue Growth Inhibition Assay, RKO. The format is cell-based. Conditions: Homo sapiens, 72 h; RKO cells, 3 days; read-out: MeB Cell Line IC50. Here is the method:
as §1, §2

Assay [4] has as its system HCT116 colon tumor cell line. The experiment in a line: Methylene Blue Growth Inhibition Assay, HCT116. Format: cell-based. Conditions: Homo sapiens, HCT-116, 72 h; HCT116 cells, 3 days; read-out: MeB Cell Line IC50. Here is the method: as §1, §2
Assay [5] concerns MCF7 breast tumor cell line. The experiment in a line: Methylene Blue Growth Inhibition Assay, MCF7. Conditions: Homo sapiens, 72 h; MCF7 cells, 3 days; read-out: MeB Cell Line IC50. Format: cell-based. As to the method:
as §1, §2

In assay [6] the test system is H460 lung tumor cell line. The experiment in a line: Methylene Blue Growth Inhibition Assay, H460. The format is cell-based. Conditions: Homo sapiens, NCI-H460, 72 h; H460 cells, 3 days; read-out: MeB Cell Line IC50. Here is the method:
as §1, §2

T1 sequence (P53350 21-346): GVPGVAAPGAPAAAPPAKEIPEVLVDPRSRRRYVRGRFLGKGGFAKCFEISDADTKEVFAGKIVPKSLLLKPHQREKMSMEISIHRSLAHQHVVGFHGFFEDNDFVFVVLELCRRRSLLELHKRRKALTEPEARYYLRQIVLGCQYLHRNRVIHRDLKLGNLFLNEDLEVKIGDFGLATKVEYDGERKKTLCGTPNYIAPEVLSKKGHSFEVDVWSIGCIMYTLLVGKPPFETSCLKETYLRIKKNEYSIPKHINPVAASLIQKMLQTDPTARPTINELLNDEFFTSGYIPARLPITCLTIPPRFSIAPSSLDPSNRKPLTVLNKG

`CC(=O)Nc1ccc(Nc2ncc([N+](=O)[O-])c(Nc3ccccc3C(=O)OC3CCCCC3)n2)cc1` [Example 21, Cyclohexyl 2-[(2-{[4-(acetylamino)phenyl]amino}-5-nitropyrimidin-4-yl)amino]benzoate hydrochloride]: on PLK1 kinase domain, the IC50 is less than 100 nM.
Same read-out and setting: in the case of `COC(=O)c1c(C)cccc1Nc1nc(Nc2ccc(NC(C)=O)cc2)ncc1[N+](=O)[O-]` [Example 31, Methyl 2-[(2-{[4-(acetylamino)phenyl]amino}-5-nitropyrimidin-4-yl)amino]-6-methylbenzoate hydrochloride] it was less than 100 nM; in that of `COc1cc(Nc2nc(Nc3ccc(NC(C)=O)cc3)ncc2Br)cc(OC)c1OC` [Example 28, N-[4-(5-Bromo-4-[(3,4,5-trimethoxyphenyl)amino]pyrimidin-2-yl}amino)phenyl]acetamide hydrochloride], more than 10000 nM; in that of `COc1cc(Nc2ncc(Br)c(Nc3ccccc3C(C)=O)n2)cc(OC)c1OC` [Example 11, 1-[2-({5-bromo-2-[(3,4,5-trimethoxyphenyl)amino]pyrimidin-4-yl}amino)phenylethanone hydrochloride], less than 100 nM.
`COc1cc(Nc2ncc([N+](=O)[O-])c(Nc3ccccc3C(N)=O)n2)cc(OC)c1OC` [Example 3, 2-({5-nitro-2-[(3,4,5-trimethoxyphenyl)amino]pyrimidin-4-yl}amino)benzamide hydrochloride]: the IC50 was 1000 to 10000 nM in assay [1]; 1000 to 10000 nM in assay [2]; less than 1000 nM in assay [3]; less than 1000 nM in assay [4]; less than 1000 nM in assay [5]; less than 1000 nM in assay [6].
With `COc1cc(Nc2ncc([N+](=O)[O-])c(Nc3ccccc3C(=O)O)n2)cc(OC)c1OC` [Example 1, 2-({5-nitro-2-[(3,4,5-trimethoxyphenyl)amino]pyrimidin-4-yl}amino)benzoic acid hydrochloride], the IC50 at PLK1 kinase domain was less than 100 nM.
On the same count and under the same terms, in the case of `CC(=O)Nc1ccc(Nc2ncc([N+](=O)[O-])c(Nc3ccccc3C(=O)OCc3ccccc3)n2)cc1` [Example 30, Benzyl 2-[(2-{[4-(acetylamino)phenyl]amino}-5-nitropyrimidin-4-yl)amino]benzoate hydrochloride] it was 100 to 10000 nM; in that of `CC(=O)Nc1ccc(Nc2ncc([N+](=O)[O-])c(Nc3ccccc3C(=O)O)n2)cc1` [Example 23, 2-[(2-{[4-(Acetylamino)phenyl]amino}-5-nitropyrimidin-4-yl)amino]benzoic acid hydrochloride], less than 100 nM; in that of `CC(=O)Nc1ccc(Nc2ncc(Br)c(Nc3ccccc3N3CCOCC3)n2)cc1` [Example 25, N-[4-({5-Bromo-4-[(2-morpholin-4-ylphenyl)amino]pyrimidin-2-yl}amino)phenyl]acetamide hydrochloride], less than 100 nM.
Still for that read-out and setting: in the case of `COc1cc(Nc2ncc(C(C)=O)c(Nc3ccccc3C(=O)NC(C)(C)C)n2)cc(OC)c1OC` [Example 38, N-(tert-butyl)-2-({5-methyl ketone-2-[(3,4,5-trimethoxyphenyl)amino]pyrimidin-4-yl}amino) benzamide] it was less than 100 nM; in that of `CC(=O)Nc1ccc(Nc2ncc(Br)c(Nc3ccccc3C(C)=O)n2)cc1` [Example 24, N-[4-({4-[(2-Acetylphenyl)amino]-5-bromopyrimidin-2-yl}amino)phenyl]acetamide hydrochloride], less than 100 nM.
As for `COc1cc(Nc2ncc([N+](=O)[O-])c(Nc3cccc4ccc(O)cc34)n2)cc(OC)c1OC` [Example 37, 8-({5-Nitro-2-[(3,4,5-trimethoxyphenyl)amino]pyrimidin-4-yl}amino)-2-naphthol hydrochloride], the IC50 on PLK1 kinase domain is less than 100 nM.
Take `CC(=O)Nc1ccc(Nc2ncc([N+](=O)[O-])c(Nc3cccc(C)c3C(=O)O)n2)cc1` [Example 33, 2-[(2-{[4-(Acetylamino)phenyl]amino}-5-nitropyrimidin-4-yl)amino]-6-methylbenzoic acid hydrochloride]: the IC50 on PLK1 kinase domain was less than 100 nM.
Regarding `COc1cc(Nc2ncc([N+](=O)[O-])c(Nc3ccccc3C(C)=O)n2)cc(OC)c1OC` [Example 35, 1-[2-({5-Nitro-2-[(3,4,5-trimethoxyphenyl)amino]pyrimidin-4-yl}amino)phenyl]ethanone hydrochloride], the IC50 on PLK1 kinase domain is less than 100 nM.
Regarding `COC(=O)c1ccccc1Nc1nc(Nc2cc(OC)c(OC)c(OC)c2)ncc1[N+](=O)[O-]` [Example 17, Methyl 2-({5-nitro-2-[(3,4,5-trimethoxyphenyl)amino]pyrimidin-4-yl}amino)benzoate hydrochloride], on PLK1 kinase domain, the IC50 is less than 100 nM.
Regarding `COC(=O)c1ccc(C(=O)OC)c(Nc2nc(Nc3ccc(NC(C)=O)cc3)ncc2[N+](=O)[O-])c1` [Example 29, Dimethyl 2-[(2-{[4-(acetylamino)phenyl]amino}-5-nitropyrimidin-4-yl)amino]terephthalate hydrochloride], on PLK1 kinase domain, the IC50 is 100 to 10000 nM.
On to `COc1cc(Nc2ncc(Br)c(Nc3ccccc3N3CCOCC3)n2)cc(OC)c1OC` [Example 27, 5-Bromo-N^4-(2-morpholin-4-ylphenyl)-N^2-(3,4,5-trimethoxyphenyl)-pyrimidine-2,4-diamine hydrochloride], for which the IC50 on PLK1 kinase domain is 100 to 10000 nM.
For the compound `CC(=O)Nc1ccc(Nc2ncc([N+](=O)[O-])c(Nc3ccccc3C(=O)OCC(C)C)n2)cc1` [Example 32, Isobutyl 2-[(2-{[4-(acetylamino)phenyl]amino}-5-nitropyrimidin-4-yl)amino]benzoate hydrochloride], the IC50 on PLK1 kinase domain is less than 100 nM.
The same measure, in the same setting: in the case of `CNC(=O)c1ccccc1Nc1nc(Nc2ccc(NC(C)=O)cc2)ncc1[N+](=O)[O-]` [Example 13, 2-[(2-{[4-(acetylamino)phenyl]amino}-5-nitropyrimidin-4-yl)amino]-N-methylbenzamide hydrochloride] it was less than 100 nM.

These data come from US7514446B2, “Pyrimidine compounds” (SmithKline Beecham Corporation, priority 2003, dated 2009).
